Series [1] deals with Trypanosoma brucei rhodesiense. The series is described as follows: Antitrypanosomal activity against blood stream form of Trypanosoma brucei rhodesiense STIB900 trypomastigotes after 72 hrs by Alamar Blue assay. As to conditions: STIB900, 72 h. The class given is functional, organism-based. (In general: Alamar Blue is a resazurin reagent that responds to reducing activity.)

The nature of series [2]: Selectivity index, ratio of IC50 for rat L6 cells to IC50 for blood stream form of Trypanosoma brucei rhodesiense STIB900. The class given is toxicity. As to conditions: read-out: Ratio IC50.
The subject of series [3] is Trypanosoma cruzi. The series is described as follows: Antitrypanosomal activity against Trypanosoma cruzi Tulahuen C4 amastigotes infected in rat L6 cells after 96 hrs by CPRG/nonidet-based inverted microscopic analysis. The class given is functional, organism-based. As to conditions: Tulahuen C4, L6, 96 h.
Series [4] in a line: Selectivity index, ratio of IC50 for rat L6 cells to IC50 for […] amastigotes infected in rat L6 cells. The class given is toxicity, cell-based. As to conditions: read-out: Ratio IC50.
For series [5], the system named is L6. The series is described as follows: Cytotoxicity against rat L6 cells assessed as reduction in cell viability after 2 days by cell-titer-glo luminescent assay. The class given is cell-based. The settings on record: L6, 48 h.
The subject of series [6] is Trypanosoma cruzi. The series is described as follows: Potency index, ratio of benznidazole IC50 to compound IC50 for Trypanosoma cruzi Tulahuen C4. The class given is functional.
Series [7] deals with Mycobacterium tuberculosis. The series is described as follows: Antitubercular activity against Mycobacterium tuberculosis H37Rv ATCC 27294 after 5 days measured under aerobic conditions by fluorescence-based assay. The class given is functional, organism-based. As to conditions: H37Rv ATCC 27294, 120 h.
Series [8] concerns Mycobacterium tuberculosis. The series is described as follows: Antitubercular activity against Mycobacterium tuberculosis H37Rv ATCC 27294 expressing luxABCDE operon incubated for 10 days under hypoxic conditions followed by incubation under aerobic conditions for 28 hrs by LORA method. The class given is functional, organism-based.
Series [9] concerns Mycobacterium tuberculosis. The series is described as follows: Antitubercular activity against Mycobacterium tuberculosis H37Rv ATCC 27294 expressing […] infected in mouse J774 cells assessed as log reduction in intracellular bacterial burden at 30 uM after 4 days by luminescence assay. The class given is functional.
Series [10] has as its system Mycobacterium tuberculosis. The series is described as follows: Antitubercular activity against Mycobacterium tuberculosis H37Rv ATCC 27294 expressing […] infected in mouse J774 cells assessed as log reduction in intracellular bacterial burden at 0.6 uM after 4 days by luminescence assay. The class given is functional.
Series [11] relates to Mycobacterium tuberculosis. The series is described as follows: Antitubercular activity against Mycobacterium tuberculosis INH-R2 ATCC 35822 after 5 days by fluorescence-based assay. The class given is functional. As to conditions: INH-R2 ATCC 35822, 120 h.
Series [12] deals with Mycobacterium tuberculosis. The series is described as follows: Antitubercular activity against Mycobacterium tuberculosis RIF-R2 ATCC 35828 after 5 days by fluorescence-based assay. As to conditions: RIF-R2 ATCC 35828, 120 h. The class given is functional.
In series [13] the test system is Mycobacterium tuberculosis. The series is described as follows: Antitubercular activity against Mycobacterium tuberculosis H37Rv ATCC 27294 expressing […] infected in mouse J774 cells assessed as log reduction in intracellular bacterial burden at 20 uM after 4 days by luminescence assay. The class given is functional.
A short description of series [14]: Cytotoxicity against African green monkey Vero cells assessed as reduction in cell viability after 2 days by cell-titer-glo luminescent assay. The class given is cell-based. The settings on record: chlorocebus sabaeus, read-out: TC50.
Series [15] has as its system Mycobacterium tuberculosis. The series is described as follows: Bactericidal activity against Mycobacterium tuberculosis H37Rv ATCC 27294 assessed as minimum concentration required to achieve a 2-log kill measured after 21 days. The class given is functional.
Series [16] can be described thus: Selectivity index, ratio of TC50 for African green monkey Vero cells to MIC for Mycobacterium tuberculosis H37Rv ATCC 27294 expressing luxABCDE operon. The class given is toxicity. The settings on record: read-out: Selectivity Index.
Series [17] concerns Mycobacterium tuberculosis. The series is described as follows: Bactericidal activity against Mycobacterium tuberculosis H37Rv ATCC 27294 assessed as minimum concentration required to achieve a 2-log kill measured after 21 days under hypoxic conditions. The class given is functional. As to conditions: H37Rv ATCC 27294, 504 h.
Series [18] concerns Mycobacterium tuberculosis. The series is described as follows: Antitubercular activity against Mycobacterium tuberculosis H37Rv ATCC 27294 expressing luxABCDE operon at 100 uM incubated for 10 days under hypoxic conditions followed by incubation under aerobic conditions for 28 hrs by LORA method. The class given is functional.
Series [19] deals with Mycobacterium tuberculosis. The series is described as follows: Antitubercular activity against Mycobacterium tuberculosis H37Rv ATCC 27294 expressing […] infected in mouse J774 cells assessed as log reduction in intracellular bacterial burden at 200 uM after 4 days by luminescence assay. The class given is functional.

SMILES strings stand for the structures. In brackets after ≈: the same amount, converted by molar mass. Activity calls are given as the source filed them.

As to `O=[N+]([O-])c1nccn1CCCNc1ccnc2c(Cl)cccc12`, the IC50 (usually the concentration needed to halve the response being measured) is 1.29 µM in [1], 1.11 µM in [3], 107 µM in series [5] and more than 200 µM in series [7]. Further, the selectivity ratio turned out to be 83 in [2] and 97 in [4]. Moreover, in series [6], the “Ratio IC50” value is recorded as 2.02. The concentration for an effect of 90% (IC90) (in general, the concentration at which the effect reaches the 90% level) in series [7] is more than 200 µM. Moreover, the minimal inhibitory concentration (MIC) (usually the smallest concentration in the dilution series that meets the test's criterion for growth inhibition) in series [7] is more than 200 µM; in series [8], 2.89 µM (≈ 0.959 µg/mL).
In series [3], `O=C(Cn1ccnc1[N+](=O)[O-])NCc1ccccc1` [BENZNIDAZOLE] had a concentration for half-maximal inhibition (IC50) of 2.24 µM.
Take `NNC(=O)c1ccncc1` [ISONIAZID]: the figures for the “log(activity)” value in [9] and in [10] were 2.6 and 2.7, respectively. In addition, the minimal inhibitory concentration (MIC) is more than 200 µM in [11] and 0.67 µM (≈ 0.0919 µg/mL) in [12].
On to `O=[N+]([O-])c1nccn1CCCCNc1ccnc2c(Cl)cccc12`, for which the IC50 in series [1] is 1.27 µM; in series [3] it was 2.04 µM; in [5], 36.2 µM; in series [7] it was 41 µM; in series [8], 0.15 µM. For the same compound, the selectivity ratio in series [2] was 29; in [4], 18; in series [16] it was 16. Moreover, in [6], the “Ratio IC50” value is reported as 1.1. Further, the values for the 90% effect concentration (IC90) in [7] and in [8] were more than 200 µM and 0.84 µM, respectively. Moreover, the minimal inhibitory concentration (MIC) in [7] is more than 200 µM; in series [8], 4.14 µM (≈ 1.43 µg/mL); in series [11], more than 200 µM; in series [12], more than 200 µM. Also, the “log(activity)” value in series [13] worked out at 1.5. Besides, the CC50 at 48 h in series [14] came to 66 µM. Also, the MBC (usually the smallest concentration meeting the test's criterion for killing) in series [15] is “inactive”.
For `Clc1cccc2c(NCCCCn3cncn3)ccnc12`, the half-maximal inhibitory concentration (IC50) in [1] was 13.5 µM; in [3], 48.6 µM; in [5], 37.7 µM. In addition, the selectivity ratio came out at 2.8 in series [2] and 0.8 in [4]. For the same compound, the “Ratio IC50” value in series [6] was 0.05.
On to `Cl.O=[N+]([O-])c1ncn(CCCCNc2ccnc3cc(Cl)ccc23)n1`, for which the IC50 in series [1] was 0.193 µM. Besides, the selectivity ratio was 710 in series [2] and 979 in series [4]. Also, the “Ratio IC50” value in series [6] came out at 9.6.
On to `O=[N+]([O-])c1nccn1CCCNc1ncnc2ccccc12`, for which the IC50 in series [1] was 13.2 µM; in series [3] it was 1.83 µM; in [5], 38.6 µM. The selectivity ratio in series [2] is 2.9; in series [4], 21. The “Ratio IC50” value in [6] was determined as 1.11.
In series [1], `Cl.O=[N+]([O-])c1ncn(CCCNc2ccnc3cc(Cl)ccc23)n1` came in with an IC50 of 0.309 µM. In addition, the “Ratio IC50” value in [6] is recorded as 2.2.
For the compound `Cc1ncc([N+](=O)[O-])n1CCO` [METRONIDAZOLE], in [7], the IC50 was more than 200 µM, the IC90 is more than 200 µM and the MIC was more than 200 µM. In addition, in [8], the IC50 is 36 µM, the 90% effect level (IC90) was put at 82 µM and the MIC turned out to be 200 µM (≈ 34.2 µg/mL).
In series [1], `Cl.O=[N+]([O-])c1nccn1CCCNc1ccnc2cc(Cl)ccc12` came in with an IC50 of 1.4 µM. In addition, the selectivity ratio in [2] is 18; in series [4] it was 24. In [6], the “Ratio IC50” value was 2.15. The compound further gave an MIC in [7] of more than 128 µM. Besides, the MBC in series [17] was in the range of 8.4 to 50 µM. The CC50 at 48 h in [14] came to 399 µM.
`Cl.O=[N+]([O-])c1nccn1CCCCNc1ccnc2cc(Cl)ccc12` returned an IC50 in series [1] of 1.87 µM. Moreover, the selectivity ratio in series [2] was found to be 36; in [4], 19. The “Ratio IC50” value in series [6] turned out to be 0.64. For the same compound, in series [7], the minimal inhibitory concentration (MIC) was more than 128 µM. Also, the MBC in series [17] was 12.8 to 25.7 µM. In addition, the CC50 at 48 h in series [14] was more than 1680 µM.
Turning to `O=[N+]([O-])c1cn2c(n1)OC[C@@H](OCc1ccc(OC(F)(F)F)cc1)C2` [PRETOMANID], in series [17], the minimum bactericidal concentration (MBC) fell in the range of 17.8 to 35.7 µM (≈ 6.39 to 12.8 µg/mL).
Turning to `CO[C@H]1/C=C/O[C@@]2(C)Oc3c(C)c(O)c4c(O)c(c(/C=N/N5CCN(C)CC5)c(O)c4c3C2=O)NC(=O)/C(C)=C\C=C\[C@H](C)[C@H](O)[C@@H](C)[C@@H](O)[C@@H](C)[C@H](OC(C)=O)[C@@H]1C` [RIFAMPIN], the figures for the half-inhibitory concentration (IC50) in [7] and in [8] were 0.0046 µM and 0.00072 µM, respectively. Besides, the IC90 in series [7] was 0.0049 µM; in series [8], 0.0037 µM. The MIC was 0.015 µM (≈ 0.0123 µg/mL) in [7], 0.022 µM (≈ 0.0181 µg/mL) in series [8], 0.011 µM (≈ 0.00905 µg/mL) in series [11] and more than 50 µM in [12].
For `O=[N+]([O-])c1ncn(CCCCNc2ccnc3c(Cl)cccc23)n1`, the half-inhibitory concentration (IC50) was 0.038 µM in series [1], 0.574 µM in [3], 73.6 µM in [5] and more than 200 µM in series [7]. The values for the selectivity ratio in series [2] and in [4] were 1940 and 128, respectively. For the same compound, the “Ratio IC50” value in series [6] turned out to be 3.9. Besides, the IC90 in series [7] was more than 200 µM. For the same compound, the MIC was more than 200 µM in series [7] and more than 100 µM in series [8]. Also, in series [18], the Activity is on record as 82%.
For the compound `O=[N+]([O-])c1nccn1CCCCNc1ncnc2ccccc12`, the concentration for half-maximal inhibition (IC50) in [1] is 2.58 µM; in [3], 2.32 µM; in series [5], 8.96 µM; in [7], more than 200 µM. Further, the values for the selectivity ratio in series [2] and in [4] were 3.5 and 3.9, respectively. In addition, the “Ratio IC50” value in series [6] worked out at 0.96. Also, the IC90 in series [7] was more than 200 µM. Further, the MIC in [7] was more than 200 µM; in series [8], 9.18 µM (≈ 2.87 µg/mL).
`O=[N+]([O-])c1ncn(CCCCNc2ncnc3ccccc23)n1`: the IC50 came out at 0.39 µM in [1]; 0.872 µM in series [3]; 34.4 µM in series [5]; 51 µM in [7]; 11 µM in series [8]. The selectivity ratio in series [2] amounted to 88; in series [4], 39. Besides, the “Ratio IC50” value in [6] worked out at 2.57. The results for the IC90 in series [7] and in series [8] were 140 µM and more than 100 µM, respectively. The MIC is 200 µM (≈ 62.7 µg/mL) in series [7], more than 100 µM in series [8], more than 200 µM in [11] and more than 200 µM in series [12]. In addition, the Activity in series [18] was determined as 76%. In addition, the “log(activity)” value in series [19] is given as 0.7. In [14], the CC50 at 48 h is more than 100 µM. Further, in series [15] (H37Rv ATCC 27294, 504 h), the MBC came out at 100 µM (≈ 31.3 µg/mL).
Take `C[C@H]1COc2c(N3CCN(C)CC3)c(F)cc3c(=O)c(C(=O)O)cn1c23.C[C@H]1COc2c(N3CCN(C)CC3)c(F)cc3c(=O)c(C(=O)O)cn1c23.O` [LEVOFLOXACIN]: the MIC amounted to 1.3 µM in series [11] and 1.4 µM in series [12].

Values taken from ChEMBL document CHEMBL4130372, “The antitrypanosomal and antitubercular activity of some nitro(triazole/imidazole)-based aromatic amines” (Eur J Med Chem, 2017).
